Source: ChEMBL document CHEMBL6096703 (J Med Chem, 2025)
Activity calls are given as the source filed them. No cut-off for these calls is given here.

Assays:
[1] = molecular target: T1, Poly [ADP-ribose] polymerase 2 (Homo sapiens, UniProt Q9UGN5); assay: Binding affinity to PARP2 (unknown origin) assessed as DNA trapping activity incubated for 1 hr by Envision 2105 plate reader analysis
[2] = Sub-acute toxicity in Kunming mouse assessed as change ALB2 level at 30 to 100 mg/kg administered via gavage once every other day for 14 days; format: organism-based; settings: in vivo, po, 336 h, dose 30-100 mg/kg, time 14 day
MDA-MB-436 [3] = assay: Induction of apoptosis in human MDA-MB-436 cells assessed as early apoptotic cells at 1 nM incubated for 3 days by Annexin V/ PI staining based flow cytometry (reference value: 12.8%); format: functional; settings: time 3 day
[4] = Tmax in male Balb/c mouse at 1 mg/kg, iv measured upto 96 hrs by LC-MS/MS analysis; format: ADME, organism-based; settings: in vivo
[5] = molecular target: T1, Poly [ADP-ribose] polymerase 2; assay: Inhibition of PARP2 in PARP1 knockout human A549 cells preincubated with compound for 1 hr followed by H2O2 addition and measured after 5 mins by selective targeting PARylation inhibition assay; format: cell-based
MDA-MB-436 [6] = assay: Antitumor activity against human MDA-MB-436 cells xenografted in female NOD/SCID mouse assessed as tumor regression rate at 3 mg/kg, po administered once every other day for 28 days relative to control; format: functional; settings: time 28 day
[7] = Acute toxicity in Kunming mouse assessed as mortality at 30 to 100 mg/kg administered via gavage once every other day for 14 days; format: organism-based; settings: in vivo, po, 336 h, dose 30-100 mg/kg, time 14 day
[8] = Toxicity in female NOD/SCID mouse xenografted with human MDA-MB-436 cells assessed as histological changes in kidney at 3 mg/kg, po administered once every other day for 28 days by H and E staining based analysis; format: organism-based; settings: in vivo, 672 h, time 28 day
DLD-1 = assay: Inhibition of colony formation in BRCA2 knockout human DLD-1 cells assessed as reduction in survival rate incubated for 10 days by crystal violet staining based assay; format: functional, cell-based; settings: dose 0.1-100 nM, time 10.0 day
[9] = Acute toxicity in Kunming mouse assessed as change in body weight at 30 to 100 mg/kg administered via gavage once every other day for 14 days; format: organism-based; settings: in vivo, po, 336 h, dose 30-100 mg/kg, time 14 day
[10] = Acute toxicity in Kunming mouse assessed as change in body weight at 100 to 300 mg/kg administered orally via gavage for 14 days; format: organism-based; settings: in vivo, po, 336 h, dose 100-300 mg/kg, time 14 day
[11] = AUC(0 to t) in male Balb/c mouse at 1 mg/kg, iv measured upto 96 hrs by LC-MS/MS analysis; format: ADME, organism-based; settings: in vivo, iv, 1 mg/kg, 96 h
[12] = Clearance in rat at 2.5 mg/kg, iv measured upto 96 hrs by LC-MS/MS analysis; format: ADME, organism-based; settings: in vivo
[13] = Toxicity in female NOD/SCID mouse xenografted with human MDA-MB-436 cells assessed as histological changes in lung at 3 mg/kg, po administered once every other day for 28 days by H and E staining based analysis; format: organism-based; settings: in vivo, 672 h, time 28 day
[14] = Oral bioavailability in rat at 2.5 mg/kg measured upto 96 hrs by LC-MS/MS analysis; format: ADME, organism-based; settings: in vivo
[15] = Sub-acute toxicity in Kunming mouse assessed as change UREAL level at 30 to 100 mg/kg administered via gavage once every other day for 14 days; format: organism-based; settings: in vivo, po, 336 h, dose 30-100 mg/kg, time 14 day
[16] = Sub-acute toxicity in Kunming mouse assessed as change ASTL level at 30 to 100 mg/kg administered via gavage once every other day for 14 days; format: organism-based; settings: in vivo, po, 336 h, dose 30-100 mg/kg, time 14 day
MDA-MB-436 [17] = assay: Induction of cell cycle arrest in human MDA-MB-436 cells assessed as accumulation of cells at G0/G1 phase at 100 nM incubated for 3 days by PI staining based flow cytometric analysis (Rvb =56.18%); format: functional; settings: time 3 day
[18] = Acute toxicity in Kunming mouse assessed as change in liver structure at 300 mg/kg administered via gavage for 14 days by H and E staining based analysis; format: organism-based; settings: in vivo, po, 336 h, time 14 day
[19] = Toxicity in female NOD/SCID mouse xenografted with human MDA-MB-436 cells assessed as histological changes in spleen at 3 mg/kg, po administered once every other day for 28 days by H and E staining based analysis; format: organism-based; settings: in vivo, 672 h, time 28 day
MDA-MB-436 [20] = assay: Induction of cell cycle arrest in human MDA-MB-436 cells assessed as accumulation of cells at G2/M phase at 1 nM incubated for 3 days by PI staining based flow cytometric analysis (Rvb =24.88%); format: functional; settings: time 3 day
[21] = Acute toxicity in Kunming mouse assessed as change in cellular morphology of kidney at 100 mg/kg administered once every other day via gavage for 14 days by H and E staining based analysis; format: organism-based; settings: in vivo, po, 336 h, time 14 day
[22] = Acute toxicity in Kunming mouse assessed as mortality at 100 to 300 mg/kg administered orally via gavage for 14 days; format: organism-based; settings: in vivo, po, 336 h, dose 100-300 mg/kg, time 14 day
[23] = Sub-acute toxicity in Kunming mouse assessed as change CREA2 level at 30 to 100 mg/kg administered via gavage once every other day for 14 days; format: organism-based; settings: in vivo, po, 336 h, dose 30-100 mg/kg, time 14 day
[24] = molecular target: Poly [ADP-ribose] polymerase 1 (Homo sapiens, UniProt P09874); assay: Inhibition of PARP1 (unknown origin) at 1 nM preincubated with compound for 10 mins followed by DNA and NAD+ addition and measured after 60 mins by chemiluminescence based envision reader analysis relative to control; settings: time 70.0 min
Chain of Poly [ADP-ribose] polymerase 1 (P09874 whole entry): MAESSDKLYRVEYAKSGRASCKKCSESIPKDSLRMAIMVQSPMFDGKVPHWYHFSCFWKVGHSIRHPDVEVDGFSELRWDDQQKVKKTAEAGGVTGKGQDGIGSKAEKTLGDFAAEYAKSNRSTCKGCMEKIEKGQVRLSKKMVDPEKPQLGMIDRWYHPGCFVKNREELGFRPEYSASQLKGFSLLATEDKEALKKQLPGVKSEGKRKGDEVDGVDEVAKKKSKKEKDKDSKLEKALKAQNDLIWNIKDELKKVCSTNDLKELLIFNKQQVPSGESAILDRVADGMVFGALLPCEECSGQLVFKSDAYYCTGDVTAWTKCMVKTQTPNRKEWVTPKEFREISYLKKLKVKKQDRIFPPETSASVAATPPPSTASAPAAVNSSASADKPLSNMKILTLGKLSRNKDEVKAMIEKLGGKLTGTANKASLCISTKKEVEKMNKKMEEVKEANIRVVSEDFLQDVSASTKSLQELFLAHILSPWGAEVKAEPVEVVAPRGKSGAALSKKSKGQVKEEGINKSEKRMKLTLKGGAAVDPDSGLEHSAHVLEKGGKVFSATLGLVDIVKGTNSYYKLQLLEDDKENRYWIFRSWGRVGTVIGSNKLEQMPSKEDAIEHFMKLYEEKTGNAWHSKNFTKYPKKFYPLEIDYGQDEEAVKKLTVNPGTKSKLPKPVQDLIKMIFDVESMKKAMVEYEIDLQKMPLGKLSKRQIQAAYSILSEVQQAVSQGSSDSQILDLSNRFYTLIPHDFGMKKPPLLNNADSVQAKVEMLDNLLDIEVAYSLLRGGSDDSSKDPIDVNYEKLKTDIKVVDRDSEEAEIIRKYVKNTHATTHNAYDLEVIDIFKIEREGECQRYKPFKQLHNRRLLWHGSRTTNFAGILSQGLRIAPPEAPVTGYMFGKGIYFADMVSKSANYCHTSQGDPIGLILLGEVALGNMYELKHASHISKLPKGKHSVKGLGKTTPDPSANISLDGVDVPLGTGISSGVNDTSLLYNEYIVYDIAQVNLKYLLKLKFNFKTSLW

[25] = AUC(0 to t) in rat at 2.5 mg/kg, po measured upto 96 hrs by LC-MS/MS analysis; format: ADME, organism-based; settings: in vivo
[26] = Sub-acute toxicity in Kunming mouse assessed as change LDH2 level at 100 to 300 mg/kg administered via gavage for 14 days; format: organism-based; settings: in vivo, po, 336 h, dose 100-300 mg/kg, time 14 day
[27] = Tmax in rat at 2.5 mg/kg, po measured upto 96 hrs by LC-MS/MS analysis; format: ADME, organism-based; settings: in vivo
MDA-MB-436 [28] = assay: Induction of cell cycle arrest in human MDA-MB-436 cells assessed as accumulation of cells at G2/M phase at 100 nM incubated for 3 days by PI staining based flow cytometric analysis (Rvb =24.88%); format: functional; settings: time 3 day
MDA-MB-436 [29] = assay: Antitumor activity against human MDA-MB-436 cells xenografted in female NOD/SCID mouse assessed as tumor regression rate at 1 mg/kg, po administered once every other day for 28 days relative to control; format: functional; settings: time 28 day
[30] = Sub-acute toxicity in Kunming mouse assessed as change UREAL level at 100 to 300 mg/kg administered via gavage for 14 days; format: organism-based; settings: in vivo, po, 336 h, dose 100-300 mg/kg, time 14 day
[31] = Tmax in rat at 2.5 mg/kg, iv measured upto 96 hrs by LC-MS/MS analysis; format: ADME, organism-based; settings: in vivo
[32] = molecular target: T1, Poly [ADP-ribose] polymerase 2; assay: Inhibition of PARP2 (unknown origin) at 1 uM preincubated with compound for 10 mins followed by DNA and NAD+ addition and measured after 60 mins by chemiluminescence based envision reader analysis relative to control; settings: time 70.0 min
[33] = Apparent volume of distribution in rat at 2.5 mg/kg, iv measured upto 96 hrs by LC-MS/MS analysis; format: ADME, organism-based; settings: in vivo, read-out: Vz
MDA-MB-436 [34] = assay: Antitumor activity against human MDA-MB-436 cells xenografted in female NOD/SCID mouse assessed as weaker Ki67 staining at 0.3 to 3 mg/kg, po administered once every other day for 28 days by immunohistochemical analysis; format: functional, organism-based; settings: dose 0.3-3 mg/kg, time 28.0 day
[35] = Clearance in rat at 2.5 mg/kg, po measured upto 96 hrs by LC-MS/MS analysis; format: ADME, organism-based; settings: in vivo

T1 sequence (Q9UGN5 whole entry): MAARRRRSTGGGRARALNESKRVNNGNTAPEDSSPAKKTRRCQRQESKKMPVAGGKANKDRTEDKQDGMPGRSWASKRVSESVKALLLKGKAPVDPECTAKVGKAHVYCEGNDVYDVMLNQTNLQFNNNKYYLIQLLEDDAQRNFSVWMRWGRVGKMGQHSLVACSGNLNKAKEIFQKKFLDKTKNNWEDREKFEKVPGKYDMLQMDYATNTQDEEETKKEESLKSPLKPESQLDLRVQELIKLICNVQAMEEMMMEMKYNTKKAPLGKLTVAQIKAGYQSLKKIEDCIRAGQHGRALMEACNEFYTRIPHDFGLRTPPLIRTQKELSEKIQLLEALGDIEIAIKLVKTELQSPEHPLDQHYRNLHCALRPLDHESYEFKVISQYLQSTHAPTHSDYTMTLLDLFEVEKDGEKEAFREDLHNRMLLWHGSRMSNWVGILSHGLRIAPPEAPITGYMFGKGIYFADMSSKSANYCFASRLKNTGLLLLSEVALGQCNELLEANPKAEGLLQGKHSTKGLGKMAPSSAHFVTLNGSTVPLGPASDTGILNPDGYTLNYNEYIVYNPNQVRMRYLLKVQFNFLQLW

For `CCc1cc2ncc(CN3CC=C(c4ccc(C#N)cn4)CC3)cc2[nH]c1=O`, the EC50 [1] was 4.33 µM, the Activity [2] was “Non-toxic” and the Activity (MDA-MB-436 [3]) was 17%. The Tmax [4] was 4.8 min, the IC50 [5] was 5.19 µM and the Activity (MDA-MB-436 [6]) was 79.8%. For the same compound, the Activity [7] was “Non-toxic”, the Activity [8] was “Non-toxic” and the inhibition (DLD-1) was “Dose-dependent-effect”. The Activity [9] was “Non-toxic”, the Activity [10] was “Non-toxic” and the AUCt [11] was 897.43221 µg·h/mL. The clearance [12] was 0.167 mL/min/kg, the Activity [13] was “Non-toxic” and the bioavailability [14] was 85.5%. For the same compound, the Activity [15] was “Non-toxic”, the Activity [16] was “Non-toxic” and the Activity (MDA-MB-436 [17]) was 53.32%. For the same compound, the Activity [18] was “Non-toxic”, the Activity [19] was “Non-toxic” and the Activity (MDA-MB-436 [20]) was 28.04%. The Activity [21] was “Non-toxic”, the Activity [22] was “Non-toxic” and the Activity [23] was “Non-toxic”. For the same compound, the inhibition [24] was 93.6%, the AUC(0-t) at 96 h [25] was 520 µg·h/mL and the Activity [26] was “Non-toxic”. The Tmax [27] was 480 min, the Activity (MDA-MB-436 [28]) was 37.31% and the Activity (MDA-MB-436 [29]) was 59.4%. For the same compound, the Activity [30] was “Non-toxic”, the Tmax [31] was 4.8 min and the inhibition [32] was 72.9%. For the same compound, the Vd [33] was 0.21 L/kg, the Activity (MDA-MB-436 [34]) was “Active” and the CL/F [35] was 0.167 mL/min/kg.
